Reference: US20230183239A1, “ECTONUCLEOTIDE PYROPHOSPHATASE-PHOSPHODIESTERASE 1 (ENPP-1) INHIBITORS AND USES THEREOF” (AbbVie Inc., priority 2017, published 2023)
pKi: −log10 of the molar value. Like-named read-outs stand apart in the source and are kept apart here.

What was measured:
[1] = molecular target: T1, ENPP1 (Homo sapiens, UniProt P22413); assay: ENPP1 enzyme assay with cGAMP substrate (AMP-Glo); format: biochemical; design: purchased R&D Systems; conditions: for inhibition at 1 µM: read-out: cGAMP: % Inhibition at 1 µM
T1 sequence (P22413 1-925): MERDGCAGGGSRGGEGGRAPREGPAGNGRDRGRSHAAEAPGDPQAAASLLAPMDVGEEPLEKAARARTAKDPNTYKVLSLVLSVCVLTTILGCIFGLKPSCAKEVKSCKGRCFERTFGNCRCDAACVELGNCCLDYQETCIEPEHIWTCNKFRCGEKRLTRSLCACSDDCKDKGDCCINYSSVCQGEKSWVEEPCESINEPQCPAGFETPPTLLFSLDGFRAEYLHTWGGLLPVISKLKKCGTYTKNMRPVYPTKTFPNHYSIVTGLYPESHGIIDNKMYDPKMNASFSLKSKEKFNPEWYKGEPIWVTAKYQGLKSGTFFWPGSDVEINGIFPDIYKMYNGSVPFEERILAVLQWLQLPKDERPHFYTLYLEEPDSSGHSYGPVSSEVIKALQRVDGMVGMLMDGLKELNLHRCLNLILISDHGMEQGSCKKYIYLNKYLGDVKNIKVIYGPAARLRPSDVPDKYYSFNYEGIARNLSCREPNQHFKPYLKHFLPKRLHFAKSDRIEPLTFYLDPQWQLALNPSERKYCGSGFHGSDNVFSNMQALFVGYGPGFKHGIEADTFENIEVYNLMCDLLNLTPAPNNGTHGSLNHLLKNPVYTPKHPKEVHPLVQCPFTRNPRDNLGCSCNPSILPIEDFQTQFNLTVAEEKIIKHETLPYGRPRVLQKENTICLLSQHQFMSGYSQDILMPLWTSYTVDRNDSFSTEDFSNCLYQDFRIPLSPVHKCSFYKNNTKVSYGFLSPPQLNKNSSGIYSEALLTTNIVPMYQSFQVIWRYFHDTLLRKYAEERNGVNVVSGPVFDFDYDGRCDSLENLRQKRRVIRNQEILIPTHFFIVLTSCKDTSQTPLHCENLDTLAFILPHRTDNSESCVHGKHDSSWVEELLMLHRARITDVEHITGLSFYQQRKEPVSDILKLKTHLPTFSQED
Text: Example B1: ENPP1 Enzyme Assay With cGAMP Substrate
Ectonucleotide pyrophosphatase/phosphodiesterase 1 (ENPP-1) is a transmembrane glycoprotein that hydrolyzes nucleotides and nucleotide derivatives with the formation of nucleoside-5’-monophosphates. […] The 5’-AMP formed from the reaction is detected using the AMP-Glo® Kit (Promega). The assay kit contains two reagents. The first reagent terminates the enzymatic reaction, removes ATP (using adenylyl cyclase), and converts 5’-AMP produced into ADP (using polyphosphate: AMP phosphotransferase). The second reagent converts ADP to ATP (using adenylate kinase) and generates light from ATP using the luciferin/luciferase reaction.
Different concentrations of ENPP1 inhibitors are pre-incubated with 5 ng/well of human ENPP-1 enzyme (R&D Systems) for 15 minutes at 37° C. The reaction is initiated by adding 20 µM 2’3’-cGAMP and incubating for 30 minutes at 37° C. The final assay reaction mixture contains a buffer of 50 mM Tris pH 8.0, 250 mM NaCl, 0.5 mM CaCl2, 1 µM ZnCl2 and 1% DMSO. At the end of the incubation, the reaction is stopped by adding 12 µl of AMP-Glo reagent-1 and mixing the reaction uniformly for 5 minutes, followed by incubation at room temperature for one hour. Then 25 µl of AMP Glo reagent-2 is added to the reaction, mixed uniformly with a pipette, and incubated at room temperature for one hour to convert the ADP formed from reagent-1 to ATP and light. The generated light is measured in a Perkin Elmer Victor® instrument.
(§1) The IC50 values for percent inhibition versus compound concentration are determined by fitting the inhibition curves using a four-parameter variable slope model in GraphPad Prism® software. Ki values are derived from the IC50 values using the Cheng-Prusoff equation: […]

[2] = molecular target: T1, ENPP1; assay: Substrate selectivity ratio, inhibition of cGAMP hydrolysis versus ATP hydrolysis; format: biochemical; conditions: ratio Ki AMP-pNP / Ki cGAMP
Description: The selectivity ratios for inhibition of cGAMP hydrolysis versus ATP hydrolysis were then calculated as follows: […]

[3] = test system: IFN β gene transcription; assay: IFNβ mRNA in cGAMP-stimulated human foreskin fibroblasts (HFF-1); format: cell-based; conditions: cGAMP-stimulated human foreskin fibroblast cells (HFF-1)
Description: Human Foreskin Fibroblasts
The cell line was sourced from ATCC (Cat# SCRC-1041). Cells were cultured in 15% fetal bovine serum-containing growth medium. They were seeded in a 48 well plate @ 100,000 per well (300 µL), and incubated for 1 hour at 37° C., 5% CO2. 100 µl of compound (0.05 µM to 5 µM final concentrations) was added 30 min prior to addition of cGAMP (12.5 µM & 25 µM final concentrations). The plate was incubated for 3 hrs at 37° C., 5% CO2. Cells were washed with PBS and 250 µl of RLT reagent (provided in the RNA isolation kit (RNeasy Mini kit, Qiagen Cat # 74106). was added to each well. RNA was isolated using this kit as per the given protocol. RNA was converted to cDNA using a Bio-Rad cDNA conversion kit (iScript® cDNA synthesis kit, Bio-Rad Cat #170-8891). IFN βgene transcription was quantitated using SYBR green dye in an RT-PCR instrument. The methods and protocol were the same as for PBMCs, except that Interferon mRNA levels were normalized to GAPDH mRNA.

[4] = molecular target: T1, ENPP1; assay: Indirect quantitation of 2',3'-cGAMP hydrolysis (AMP-Glo Assay kit); format: biochemical
[5] = molecular target: T1, ENPP1; assay: ENPP1 enzyme assay with AMP-pNP substrate (hydrolysis of ATP analog); format: biochemical
Outline: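 Human recombinant ENPP1 (60 ng/well) with 300 µM AMP-pNP in 50 mM Tris-HCl pH 8.5, 250 mM NaCl, 0.5 mM CaCl2, 1 µM ZnCl2, 0.1% DMSO, 20 min at 37 °C.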

[6] = test system: IFNβ gene transcription; format: cell-based, human; conditions: 3, 6, and 19 hrs exposure; VACV-70 stimulated PBMCs
[7] = molecular target: T1, ENPP1; assay: ENPP1 enzyme assay with TMP-pNP substrate; format: biochemical; design: purchased R&D Systems; conditions: for pKi: Ki from IC50 by Cheng-Prusoff
Description: Example B2: ENPP1 Enzyme Assay With TMP-pNP Substrate
Ectonucleotide pyrophosphatase/phosphodiesterase 1 (ENPP-1) is a transmembrane glycoprotein that hydrolyzes nucleotides and nucleotide derivatives with the formation of nucleotide-5’-monophosphates. ENPP-1 hydrolyzes thymidine 5’monophosphate p-nitrophenyl ester (TMP-pNP) to nucleotide-5’-monophosphate and p-nitrophenol, which is a chromogenic product. The amount of p-nitrophenol product formed is measured using its absorbance at 405 nm, which is directly proportional to enzyme activity. Different concentrations of inhibitors are pre-incubated with 15 ng/well of human ENPP-1 enzyme (R&D Systems) for 15 minutes at 37° C. The reaction is initiated by adding 200 µM TMP-pNP and incubating for 10 minutes at 37° C. The final assay reaction mixture contains a buffer of 50 mM Tris pH 8.0, 250 mM NaCl, 0.5 mM CaCl2, 1 µM ZnCl2 and 1% DMSO. The amount of product formed is measured directly in a Tecan® spectrophotometer. Maximal activity control samples (containing enzyme, substrate, and buffer in the absence of ENPP1 inhibitors: MAX) and background control samples (containing enzyme, substrate, and buffer plus a fully inhibitory concentration (3 µM) of the reference ENPP1 Inhibitor, Example 333: MIN) are simultaneously evaluated in order to calculate the percent inhibition at each compound concentration as follows:
as §1, with “curves (percent inhibition versus inhibitor concentration)” for “curves”

[8] = cGAMP substrate, Ki from IC50 by Cheng-Prusoff, read-out: ENPP1 Inhibition -cGAMP: Ki
[9] = AMP-pNP substrate (ATP analog), Ki from IC50 by Cheng-Prusoff, read-out: ENPP1 Inhibition _AMP-pNP: Ki
[10] = cGAMP substrate, Ki from IC50 by Cheng-Prusoff, read-out: cGAMP: Ki

`COc1cc2ncnc(-c3ccc4c(c3)CN(S(N)(=O)=O)CC4)c2cc1OC` [Example 32, 7-(6,7-dimethoxyquinazolin-4-yl)-3,4-dihydroisoquinoline-2(1H)-sulfonamide] was tested, and the inhibition at 1 µM ([1]; 1 µM compound, cGAMP substrate) was > 75%, the “Substrate Selectivity: Ki_AMP-pNP/Ki_cGAMP” value (shortened to “Substrate Selectivity”) [2] was 24.3 and the “transcription of IFNβ” value [3] was “enhances transcription of IFNβ”. The pKi [4, 8] was > 7.00 and the pKi [5, 9] was > 7.00.
With `COc1ccc2c(Oc3ccc(NS(N)(=O)=O)cc3)ccnc2c1` [Example 54, N-(4-((7-methoxyquinolin-4-yl)oxy)phenyl)sulfamide] the “transcription of IFNβ” value [6] was “enhances transcription of IFNβ”, the pKi [4] was > 7.00 and the pKi [5] was 6.00 to 7.00.
With `COc1ccc2c(-c3ccc(CNS(N)(=O)=O)cc3)ccnc2c1` [Example 55, N-(4-(7-methoxyquinolin-4-yl)benzyl)sulfamide] the “transcription of IFNβ” value [3] was “enhances transcription of IFNβ”.
`COc1cc2ncc(C#N)c(N3CCC(CCNS(N)(=O)=O)CC3)c2cc1OC` [Example 20, N-(2-(1-(3-cyano-6,7-dimethoxyquinolin-4-yl)piperidin-4-yl)ethyl)sulfamide] was tested, and the pKi [7] was > 7.00, the inhibition at 1 µM ([1]; 1 µM compound, cGAMP substrate) was > 75% and the pKi [1, 10] was > 7.00. For the same compound, the “Substrate Selectivity” value [2] was 489, the pKi [4, 8] was > 7.00 and the pKi [5, 9] was 6.00 to 7.00.
With `COc1cc2ncc(C#N)c(N3CCC4(CC3)CCN(S(N)(=O)=O)C4)c2cc1F` [Example 57, 8-(3-cyano-6-fluoro-7-methoxyquinolin-4-yl)-2,8-diazaspiro[4.5]decane-2-sulfonamide] the “Substrate Selectivity” value [2] was 24.7, the “transcription of IFNβ” value [3] was “enhances .transcription of IFNβ” and the pKi [4, 8] was > 7.00. The pKi [5, 9] was > 7.00.
For `COc1ccc2c(Oc3ccc(S(N)(=O)=O)cc3)ccnc2c1` [Example 58, 4-((7-methoxyquinolin-4-yl)oxy)benzenesulfonamide], the “transcription of IFNβ” value [6] was “enhances transcription of IFNβ”.
Work on `COc1cc2nc(-c3cccnc3)nc(N3CCC(CCNS(N)(=O)=O)CC3)c2cc1OC` [Example 5, N-(2-(1-(6,7-dimethoxy-2-(pyridin-3-yl)quinazolin-4-yl)piperidin-4-yl)ethyl)sulfamide] yielded an inhibition at 10 µM ([7]; read-out: TMP-pNP: % inhibition at 10 uM, 10 uM compound) of 50 to 75%, a pKi [1] of 6.00 to 7.00 and an inhibition at 1 µM [1] of 50 to 75%. The “Substrate Selectivity” value [2] was >24, the pKi [4] was 6.00 to 7.00 and the pKi [5] was < 6.00.
With `Cn1cnc2ncnc(N3CCC(CCNS(N)(=O)=O)CC3)c21` [Example 22, N-(2-(1-(7-methyl-7H-purin-6-yl)piperidin-4-yl)ethyl)sulfamide] the pKi [7] was < 6.00, the pKi [1, 10] was > 7.00 and the “Substrate Selectivity” value [2] was >115. The pKi [4, 8] was > 7.00 and the pKi [5, 9] was < 6.00.
In the case of `COc1cc2nc(N)nc(N3CCC(CCNS(N)(=O)=O)CC3)c2cc1OC` [Example 1, N-(2-(1-(2-amino-6,7-dimethoxyquinazolin-4-yl)piperidin-4-yl)ethyl)sulfamide], the pKi [7] was 6.00 to 7.00, the pKi [1, 10] was > 7.00 and the “Substrate Selectivity” value [2] was 41.7. The pKi [4, 8] was > 7.00 and the pKi [5, 9] was 6.00 to 7.00.
